Results taken from patent publication US20230167127A1, “COMPOUNDS AND THEIR USE IN THE TREATMENT OF BACTERIAL INFECTION” (Hoffmann-La Roche Inc., priority 2020, published 2023).

These molecules were tested on Escherichia coli ATCC 25922 (assay: 50% growth inhibitory concentration (IC50) determination, Iso-Sensitest broth dilution). Settings: Escherichia coli, ATCC25922, 16 h, strain Escherichia coli ATCC 25922; 10-point broth dilution, optical density at 600 nm over 16 h; read-out: Escherichia coli growth inhibition IC50.
Type: cell-based
Description: 50% Growth Inhibitory Concentration (IC50) Determination
The in vitro antimicrobial activity of the compounds was determined according to the following procedure:
The assay used a 10-point Iso-Sensitest broth dilution method to measure quantitatively the in vitro
ATCC 25922, Acinetobacter baumannii ATCC 17961, Klebsiella pneumoniae ATCC 43816 and Staphylococcus aureus ATCC 29213.
Stock compounds in DMSO were serially twofold diluted (e.g. range from 50 to 0.097 μM final concentration) in 384 wells microtiter plates and inoculated with 50 μL of the bacterial suspension in Iso-
ell of 50 μL/well. Microtiter plates were incubated at 35±2° C.
Bacterial cell growth was determined with the measurement of optical density at λ=600 nm each 20 minutes over a time course of 16 h.
Growth inhibition was calculated during the logarithmic growth of the bacterial cells with
Table 1 provides the 50% growth inhibitory concentrations (IC50) in micromoles per liter of the compounds of present invention obtained against the strain Escherichia coli ATCC 25922.

IC50 [nM]	Structure (SMILES)
191	CC(N)COc1cc2c(c(Cl)n1)CC(CNCCC1CN(c3cnc4c(n3)NC(=O)CO4)C(=O)O1)C2 (stereo not drawn) [Example 145, 6-[5-[2-[[3-(2-aminopropoxy)-1-chloro-6,7-dihydro-5H-cyclopenta[c]pyridin-6-yl]methylamino]ethyl]-2-oxo-oxazolidin-3-yl]-4H-pyrazino[2,3-b][1,4]oxazin-3-one; formic acid]
< 97.7	NC1c2c(Cl)cccc2CC1CNCCC1CN(c2ccc3c(n2)NC(=O)CO3)C(=O)O1 (racemic) [Example 168, 6-[2-oxo-5-[2-[[rac-1,2-trans-1-amino-7-chloro-2,3-dihydro-1H-inden-2-yl]methylamino]ethyl]-1,3-oxazolidin-3-yl]-4H-pyrido[3,2-b][1,4]oxazin-3-one; formic acid]
112	NC1c2cccc(Cl)c2CC1CNCCC1CN(c2cnc3c(n2)NC(=O)CO3)C(=O)O1 (racemic) [Example 136, 6-[2-oxo-5-[2-[[rac-1,2-trans-1-amino-4-chloro-2,3-dihydro-1H-inden-2-yl]methylamino]ethyl]-1,3-oxazolidin-3-yl]-4H-pyrazino[2,3-b][1,4]oxazin-3-one; formic acid]
5800	NC1c2cccc(Cl)c2CC1CNCCC1CN(c2cnc3c(c2)NC(=O)CO3)C(=O)O1 (racemic) [Example 135, 7-[2-oxo-5-[2-[[rac-1,2-trans-1-amino-4-chloro-2,3-dihydro-1H-inden-2-yl]methylamino]ethyl]-1,3-oxazolidin-3-yl]-1H-pyrido[2,3-b][1,4]oxazin-2-one; formic acid]
121	N#Cc1cc(OCC2CCN2)cc2c1CC(CNCCC1CN(c3ccc4c(n3)NC(=O)CO4)C(=O)O1)C2 (stereo not drawn) [Example 187, 6-(azetidin-2-ylmethoxy)-2-[[2-[2-oxo-3-(3-oxo-4H-pyrido[3,2-b][1,4]oxazin-6-yl)-1,3-oxazolidin-5-yl]ethylamino]methyl]-2,3-dihydro-1H-indene-4-carbonitrile]
249	Cc1ncc(F)c2c1CC(N[C@H]1CC[C@]3(CC1)CN(c1cnc4c(n1)NC(=O)CO4)C(=O)O3)C2 (stereo partly drawn) [Example 297, trans-6-[8-[(4-fluoro-1-methyl-6,7-dihydro-5H-cyclopenta[c]pyridin-6-yl)amino]-2-oxo-1-oxa-3-azaspiro[4.5]decan-3-yl]-4H-pyrazino[2,3-b][1,4]oxazin-3-one; formic acid]
692	N#Cc1c(OCC2CNC2)ccc2c1CC(CNCCC1CN(c3ccc4c(n3)NC(=O)CO4)C(=O)O1)C2 (stereo not drawn) [Example 129, 5-(azetidin-3-ylmethoxy)-2-[[2-[2-oxo-3-(3-oxo-4H-pyrido[3,2-b][1,4]oxazin-6-yl)-1,3-oxazolidin-5-yl]ethylamino]methyl]-2,3-dihydro-1H-indene-4-carbonitrile; formic acid]
205	CS(=O)(=O)NCCOc1cc(F)c2c(c1)CC(CNCCC1CN(c3cnc4c(n3)NC(=O)CO4)C(=O)O1)C2 (stereo not drawn) [Example 324, N-[2-[[7-fluoro-2-[[2-[2-oxo-3-(3-oxo-4H-pyrazino[2,3-b][1,4]oxazin-6-yl)-1,3-oxazolidin-5-yl]ethylamino]methyl]-2,3-dihydro-1H-inden-5-yl]oxy]ethyl]methanesulfonamide]
453	O=C1COc2ccc(N3CC(CNCC4Cc5cccc(Cl)c5C4)OC3=O)nc2N1 (stereo not drawn) [Example 21, 6-[5-[[(4-chloro-2,3-dihydro-1H-inden-2-yl)methylamino]methyl]-2-oxo-1,3-oxazolidin-3-yl]-4H-pyrido[3,2-b][1,4]oxazin-3-one; formic acid]
< 97.7	NC1(COc2ccc3c(c2Cl)CC(CNCCC2CN(c4ccc5c(n4)NC(=O)CO5)C(=O)O2)C3)CC1 (stereo not drawn) [Example 117, 6-[5-[2-[[5-[(1-aminocyclopropyl)methoxy]-4-chloro-2,3-dihydro-1H-inden-2-yl]methylamino]ethyl]-2-oxo-1,3-oxazolidin-3-yl]-4H-pyrido[3,2-b][1,4]oxazin-3-one; formic acid]
230	Cc1ncc(F)c2c1CC(CN1CC(C3CN(c4cnc5c(n4)NC(=O)CO5)C(=O)O3)C1)C2 (stereo not drawn) [Example 75, 6-[5-[1-[(4-fluoro-1-methyl-6,7-dihydro-5H-cyclopenta[c]pyridin-6-yl)methyl]azetidin-3-yl]-2-oxo-oxazolidin-3-yl]-4H-pyrazino[2,3-b][1,4]oxazin-3-one; formic acid]
< 97.7	Cc1ncc(C#N)c2c1CC(CNCC[C@H]1CN(c3cnc4c(n3)NC(=O)CO4)C(=O)O1)C2 (stereo partly drawn) [Example 364, 1-methyl-6-[[2-[(5S)-2-oxo-3-(3-oxo-4H-pyrazino[2,3-b][1,4]oxazin-6-yl)-1,3-oxazolidin-5-yl]ethylamino]methyl]-6,7-dihydro-5H-cyclopenta[c]pyridine-4-carbonitrile]
< 97.7	NCCOc1ccc2c(c1Cl)CC(CNCCC1CN(c3ccc4c(n3)NC(=O)CO4)C(=O)O1)C2 (stereo not drawn) [Example 116, 6-[5-[2-[[5-(2-Aminoethoxy)-4-chloro-2,3-dihydro-1H-inden-2-yl]methylamino]ethyl]-2-oxo-1,3-oxazolidin-3-yl]-4H-pyrido[3,2-b][1,4]oxazin-3-one]
< 97.7	O=C1COc2ncc(N3CC(CCNCC4Cc5cccc(Cl)c5C4)OC3=O)nc2N1 (stereo not drawn) [Example 281, 6-[5-[2-[(4-Chloro-2,3-dihydro-1H-inden-2-yl)methylamino]ethyl]-2-oxo-1,3-oxazolidin-3-yl]-4H-pyrazino[2,3-b][1,4]oxazin-3-one]
< 97.7	NC1(COc2cc(F)c3c(c2F)CC(CNCCC2CN(c4ccc5c(n4)NC(=O)CO5)C(=O)O2)C3)CC1 (stereo not drawn) [Example 409, 6-[5-[2-[[5-[(1-aminocyclopropyl)methoxy]-4,7-difluoro-2,3-dihydro-1H-inden-2-yl]methylamino]ethyl]-2-oxo-1,3-oxazolidin-3-yl]-4H-pyrido[3,2-b][1,4]oxazin-3-one; formic acid]
< 97.7	Cc1ncc(F)c2c1CC(NCCCc1cn(-c3cnc4c(n3)NC(=O)CO4)c(=O)o1)C2 (stereo not drawn) [Example 302, 6-[5-[3-[(4-Fluoro-1-methyl-6,7-dihydro-5H-cyclopenta[c]pyridin-6-yl)amino]propyl]-2-oxo-1,3-oxazol-3-yl]-4H-pyrazino[2,3-b][1,4]oxazin-3-one; formic acid]
< 97.7	NC1c2cccc(Cl)c2CC1CN[C@H]1C[C@@]2(CN(c3ccc4c(n3)NC(=O)CO4)C(=O)O2)C1 (mixture of isomers) [Example 211, 2,4-trans-6-[6-oxo-2-[[rac-1,2-trans-1-amino-4-chloro-2,3-dihydro-1H-inden-2-yl]methylamino]-5-oxa-7-azaspiro[3.4]octan-7-yl]-4H-pyrido[3,2-b][1,4]oxazin-3-one]
< 97.7	N[C@@H]1c2cccc(Cl)c2C[C@H]1CN1CCC2(CC1)CN(c1cnc3c(n1)NC(=O)CO3)C(=O)O2 (racemic) [Example 259, 6-[2-Oxo-8-[[rac-1,2-trans-1-amino-4-chloro-2,3-dihydro-1H-inden-2-yl]methyl]-1-oxa-3,8-diazaspiro[4.5]decan-3-yl]-4H-pyrazino[2,3-b][1,4]oxazin-3-one; formic acid]
439	O=C1COc2ccc(N3CC(CCCNC4Cc5ccccc5C4)OC3=O)nc2N1 (stereo not drawn) [Example 9, 6-[5-[3-(2,3-dihydro-1H-inden-2-ylamino)propyl]-2-oxo-1,3-oxazolidin-3-yl]-4H-pyrido[3,2-b][1,4]oxazin-3-one; formic acid]
295	N#Cc1cc(OCC2CNC2)cc2c1CC(CNCCC1CN(c3ccc4c(n3)NC(=O)CO4)C(=O)O1)C2 (stereo not drawn) [Example 191, 6-(azetidin-3-ylmethoxy)-2-[[2-[2-oxo-3-(3-oxo-4H-pyrido[3,2-b][1,4]oxazin-6-yl)-1,3-oxazolidin-5-yl]ethylamino]methyl]-2,3-dihydro-1H-indene-4-carbonitrile; 2,2,2-trifluoroacetic acid]
< 97.7	CC(C)(N)COc1cc(C#N)c2c(c1)CC(CNCCC1CN(c3ccc4c(n3)NC(=O)CO4)C(=O)O1)C2 (stereo not drawn) [Example 203, 6-(2-amino-2-methylpropoxy)-2-(((2-(2-oxo-3-(3-oxo-3,4-dihydro-2H-pyrido[3,2-b][1,4]oxazin-6-yl)oxazolidin-5-yl)ethyl)amino)methyl)-2,3-dihydro-1H-indene-4-carbonitrile; 2,2,2-trifluoroacetic acid]
< 97.7	O=C1COc2ccc(N3CC(CNCCC4Cc5cccc(Cl)c5C4)OC3=O)nc2N1 (stereo not drawn) [Example 26, 6-[5-[ [2-(4-chloro-2,3-dihydro-1H-inden-2-yl)ethylamino]methyl]-2-oxo-1,3-oxazolidin-3-yl]-4H-pyrido[3,2-b][1,4]oxazin-3-one; formic acid]
163	Cc1ncc(F)c2c1CC(N(C)CCCc1cn(-c3cnc4c(n3)NC(=O)CO4)c(=O)o1)C2 (stereo not drawn) [Example 303, 6-[5-[3-[(4-Fluoro-1-methyl-6,7-dihydro-5H-cyclopenta[c]pyridin-6-yl)-methylamino]propyl]-2-oxo-1,3-oxazol-3-yl]-4H-pyrazino[2,3-b][1,4]oxazin-3-one; formic acid]
< 97.7	Cc1c(OCC2(N)CC2)nc(-c2nccs2)c2c1CC(CNCCC1CN(c3ccc4c(n3)NC(=O)CO4)C(=O)O1)C2 (stereo not drawn) [Example 218, 6-[5-[2-[[3-[(1-aminocyclopropyl)methoxy]-4-methyl-1-(1,3-thiazol-2-yl)-6,7-dihydro-5H-cyclopenta[c]pyridin-6-yl]methylamino]ethyl]-2-oxo-1,3-oxazolidin-3-yl]-4H-pyrido[3,2-b][1,4]oxazin-3-one]
